Source: patent publication US11578055B2, “Triazacyclododecansulfonamide (“TCD”)-based protein secretion inhibitors” (KEZAR LIFE SCIENCES, priority 2018, dated 2023)
Where a name gives a salt, the structure may show the parent alone. Read-outs that look alike come from different tables or passages of the source.

Legend:
[1] = In Vitro Microsome Stability Assay (monkey); format: in vitro ADME
Procedure, shortened: (§1)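 Species liver microsomes in potassium phosphate buffer were preincubated at 37 °C for 3–5 min with test compound (added from 0.25 mM DMSO stock), then started with NADPH. Samples at 0 and 30 min were quenched with acetonitrile containing internal standard and analysed by LC-MS/MS; % remaining at 30 min used analyte/IS AUC ratios relative to t=0.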

[2] = system: multiple myeloma cell line NCl-H929; experiment: H929 Cell Viability Assay; format: cell-based, human
Procedure, shortened: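 Viability was determined by CellTiter-Glo luminescence after a 48 h, 37 °C exposure of NCI-H929 cells to serial compound dilutions in medium containing 10% FBS. Where stereochemistry is not shown, values refer to a mix of stereoisomers.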

[3] = In Vitro Microsome Stability Assay (human); format: in vitro ADME
Procedure, shortened: as §1

[4] = system: multiple myeloma cell line U266B1; experiment: U266 Cell Viability Assay; format: cell-based, human; conditions: 48 hr
Procedure, shortened: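 Viability was measured by CellTiter-Glo luminescence after 48 h compound exposure at 37° C, 5% CO2. The cells were U266B1 multiple myeloma cells grown in RPMI 1640 plus 10% FBS. Where stereochemistry is not shown, values apply to the stereoisomer mixture.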

[5] = In Vitro Microsome Stability Assay (rat); format: in vitro ADME
Procedure, shortened: as §1

[6] = system: full length TNFα (amino acids 1-233) fused to Gaussia Luciferase; experiment: Dox Induced TNFα-FL-Gluc Assay; format: cell-based; conditions: 24 hr, read-out: 24 hr Dox Inducible TNFaFLGluc 293FRT/TO: Mean IC50
Procedure, shortened: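 Compounds diluted in DMSO/medium with doxycycline were incubated at 37° C, 5% CO2 with 293 T-REx cells stably carrying a Tet-regulated TNFα(1-233)-Gaussia luciferase construct. Data for structures drawn without stereochemistry refer to stereoisomer mixtures.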

[7] = In Vitro Microsome Stability Assay (mouse); format: in vitro ADME
Procedure, shortened: as §1

[8] = system: PD1 signal sequence plus 10 amino acids fused to Gaussia Luciferase (PD1-ss+10aa/Gaussia Luciferase); experiment: Dox Induced PD1-ss-Gluc Assay; format: cell-based; conditions: 24 hr, read-out: 24 hr Dox Inducible PD1ssGluc 293FRT/TO: Mean IC50
Procedure, shortened: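 Compound dilutions in DMSO/media containing doxycycline were applied to a stable, inducible 293 T-REx line carrying the luciferase fusion, then incubated at 37 °C, 5% CO2. Where stereochemistry is not drawn, values relate to isomer mixtures.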

[9] = monkey liver microsomes, 30 min w/ NADPH
[10] = Homo sapiens, NCI-H929, 48 h, H929, Celltiter-Glo
[11] = human liver microsomes, 30 min w/ NADPH
[12] = Homo sapiens, U-266, U266, Celltiter-Glo
[13] = rat liver microsomes, 30 min w/ NADPH
[14] = mouse liver microsomes, 30 min w/ NADPH
[15] = Homo sapiens, NCI-H929, 48 h, H929, read-out: 48 hr H929 Viability Celltiter-Glo: Mean EC50
[16] = Homo sapiens, U-266, U266, read-out: 48 hr U266 Viability Celltiter-Glo: Mean EC50

Row | Structure (SMILES) | Liver Microsome Stability-% Left after 30 min w/ NADPH (%) Monkey [1, 9] [%] | EC50 [2, 10] [µM] | Liver Microsome Stability-% Left after 30 min w/ NADPH (%) Human [3, 11] [%] | EC50 [4, 12] [µM] | Liver Microsome Stability-% Left after 30 min w/ NADPH (%) Rat [5, 13] [%] | IC50 ([6]; Dox inducible, 293FRT/TO cells) [µM] | Liver Microsome Stability-% Left after 30 min w/ NADPH (%) Mouse [7, 14] [%] | IC50 ([8]; Dox inducible, 293FRT/TO cells) [µM] | Liver Microsome Stability-% Left after 30 min w/ NADPH (%) Monkey ([1]; monkey, 30 min, NADPH) [%] | EC50 [2, 15] [µM] | Liver Microsome Stability-% Left after 30 min w/ NADPH (%) Human ([3]; human, 30 min, NADPH) [%] | EC50 [4, 16] [µM] | Liver Microsome Stability-% Left after 30 min w/ NADPH (%) Rat ([5]; rat, 30 min, NADPH) [%] | IC50 ([6]; 293FRT/TO) [µM] | Liver Microsome Stability-% Left after 30 min w/ NADPH (%) Mouse ([7]; mouse, 30 min, NADPH) [%] | IC50 ([8]; 293FRT/TO) [µM] | EC50 ([2]; 48 hr, H929, read-out: 48 hr H929 Viability Celltiter-Glo: Mean EC50) [µM] | EC50 ([4]; U266, read-out: 48 hr U266 Viability Celltiter-Glo: Mean EC50) [µM]
1 | C=C1CN(S(=O)(=O)c2ccc(C)cc2)CCCN(CC2CCCCC2)CCC(C)N(S(=O)(=O)c2ccc(C)cc2)C1 (centres unmarked) [B1, 5-(cyclohexylmethyl)-2-methyl-11-methylene-1,9-ditosyl-1,5,9-triazacyclododecane hydrochloride] | 0.02 | > 25 | 0.04 | > 25 | 0.01 | > 25 | 0.02 | 0.424 |  |  |  |  |  |  |  |  |  | 
2 | C=C1CN(S(=O)(=O)c2ccc(N(C)C)cc2)CCCN(CC2CCCCC2)CCCN(S(=O)(=O)N2CCC(c3nc4ccccc4o3)CC2)C1 [A80, 4-[(5-{[4-(1,3-benzoxazol-2-yl)piperidin-1-yl]sulfonyl}-9-(cyclohexylmethyl)-3-methylidene-1,5,9-triazacyclododecan-1-yl)sulfonyl]-N,N-dimethylaniline] |  |  |  |  |  |  |  |  | 2.56 | > 25 | 10.8 | > 25 | 14.1 | > 25 | 13.4 | 0.273 |  | 
3 | C=C1CN(S(=O)(=O)c2ccc(N(C)C)cc2)CCCN(CC2CCCCC2)CCCN(S(=O)(=O)N(C)C)C1 [A16, 9-(cyclohexylmethyl)-5-[4-(dimethylamino)benzenesulfonyl]-N,N-dimethyl-3-methylidene-1,5,9-triazacyclododecane-1-sulfonamide] |  |  |  |  |  |  |  |  | 41.1 | 4.98 | 0.11 | > 25 | 2.62 | 6.34 | 2.09 | 0.108 |  | 
4 | C=C1CN(S(=O)(=O)c2ccc(N(C)C)cc2)CCCN(CC2CCCCC2)CCCN(S(=O)(=O)N2CC=C(C3=CCCC3)CC2)C1 [A67, 4-{[9-(cyclohexylmethyl)-5-{[4-(cyclopent-1-en-1-yl)-1,2,3,6-tetrahydropyridin-1-yl]sulfonyl}-3-methylidene-1,5,9-triazacyclododecan-1-yl]sulfonyl}-N,N-dimethylaniline] |  |  |  |  |  |  |  |  | 27.6 | 2.4 | 33.2 | > 25 | 45.4 | 0.937 | 28 | 0.0408 |  | 
5 | C=C1CN(S(=O)(=O)c2ccc(N(C)C)cc2)CCCN(CC2CCCCC2)CCCN(S(=O)(=O)N2CCN(c3ccccc3)C(=O)C2)C1 [A48, 4-{[9-(cyclohexylmethyl)-5-[4-(dimethylamino)benzenesulfonyl]-3-methylidene-1,5,9-triazacyclododecan-1-yl]sulfonyl}-1-phenylpiperazin-2-one] |  |  |  |  |  |  |  |  | 0.1 | > 25 | 0.19 | > 25 | 0.4 | > 25 | 0.07 | 0.991 |  | 
6 | CN(C)c1ccc(S(=O)(=O)N2CCCN(CC3CCCCC3)CCCN(S(=O)(=O)N3CCC(c4ccccc4)CC3)CC(=O)C2)cc1 [B20, 9-(cyclohexylmethyl)-1-((4-(dimethylamino)phenyl)sulfonyl)-5-((4-phenylpiperidin-1-yl)sulfonyl)-1,5,9-triazacyclododecan-3-one] | 1.73 | > 25 | 5.43 | > 25 | 11.1 | > 25 | 3.41 | 0.794 |  |  |  |  |  |  |  |  |  | 
7 | CN(C)c1ccc(S(=O)(=O)N2C/C=C/CN(S(=O)(=O)N3CCC(c4ccccc4)CC3)CCCN(CC3CCCCC3)CCC2)cc1 [B9, 4-{[(11E)-5-(cyclohexylmethyl)-9-[(4-phenylpiperidin-1-yl)sulfonyl]-1,5,9-triazacyclotridec-11-en-1-yl]sulfonyl}-N,N-dimethylaniline] | 0.26 | > 25 | 0.49 | > 25 | 3.74 | > 25 | 0.36 | 3.64 |  |  |  |  |  |  |  |  |  | 
8 | C=C1CN(S(=O)(=O)c2ccc(C)cc2)CCCN(CC2CCCCC2)CCCN(S(=O)(=O)C2CCCCC2)C1 [A8, 1-(cyclohexanesulfonyl)-9-(cyclohexylmethyl)-5-(4-methylbenzenesulfonyl)-3-methylidene-1,5,9-triazacyclododecane] |  |  |  |  |  |  |  |  | 0.19 |  | 0.09 |  | 0.61 | > 25 | 0.17 | 2.68 | > 25 | > 25
9 | C=C1CN(S(=O)(=O)c2ccc(N(C)C)cc2)CCCN(CC2CCCCC2)CCCN(S(=O)(=O)N2CCc3c(Cl)cccc3C2)C1 [A54, 4-({5-[(5-chloro-1,2,3,4-tetrahydroisoquinolin-2-yl)sulfonyl]-9-(cyclohexylmethyl)-3-methylidene-1,5,9-triazacyclododecan-1-yl}sulfonyl)-N,N-dimethylaniline] |  |  |  |  |  |  |  |  | 30.5 | 1.91 | 33.8 | > 25 | 42.4 | 0.952 | 34.6 | 0.0265 |  | 
10 | C=C1CN(S(=O)(=O)c2ccc(C)cc2)CCCN(C(=O)OCCC)CCCN(S(=O)(=O)c2ccc(N(C)C)cc2)C1 [A12, propyl 5-((4-(dimethylamino)phenyl)sulfonyl)-7-methylene-9-tosyl-1,5,9-triazacyclododecane-1-carboxylate] |  |  |  |  |  |  |  |  | 0.22 | > 25 | 0.11 | > 25 | 0.07 | > 25 | 0.1 | 0.858 |  | 
